According to patent US7687473B2, “5-amino-4-imidazolecarboxamide riboside and its nucleobase as potentiators of antifolate transport and metabolism” (Health Research, Inc., priority 2005, dated 2010):
Values belong to the compound of their own block, whether it stands above or below them.

Experiments:
[1] = tested on: CCRF-CEM human leukemia cells; experiment: Synthesis of methotrexate polyglutamates by CCRF-CEM cells; format: cell-based
Experimental: MTX polyglutamate synthesis. […] At the end of the exposure cells were rapidly chilled to 4 degrees C., harvested by centrifugation at 1000×g for 5 min, washed twice with iced 0.9% NaCl by centrifugation in the same manner. One mL of boiling 50 mM Na-phosphate, pH 5.5 was added, the pellet was triturated and the sample boiled for 5 min. The sample was rapidly cooled to 4 degrees C. Debris was removed by centrifugation as above. The supernatant was further clarified by centrifugation through an Amicon MPS-1 filter unit. […] A suitable volume was injected onto a reversed-phase HPLC column (C18) and eluted with a gradient of from 4-14% acetonitrile over about 43 min. One min fractions were collected and, after addition of 10 ml scintillation fluid, were quantitated by liquid scintillation counting.

[2] = tested on: CCRF-CEM cells; experiment: [3H]MTX uptake (initial velocity and 30 min accumulation) in CCRF-CEM cells; format: cell-based, human; settings: for Q10 for extent of [3H]MTX uptake at 30 min / Q10 for vi of [3H]MTX uptake (37° vs. 27°): 1 μM TMTX; for Vmax/Kt from vi (0-5 min) data: 1-10 μM MTX
Experimental: (§1) Quantitation of folate and antifolate uptake. The method is essentially as follows. Briefly, logarithmically growing (3-5×10^5/ml) CCRF-CEM cells were harvested at room temperature by centrifugation at 1000×g for 5 min. After washing with the appropriate medium, cells were suspended at ≈2×10^7 cells/ml for use in transport studies. […] Anion-free MHS contains 250 mM sucrose and 20 mM HEPES, titrated to pH 7.4 with MgO. […] Uptake was measured as a function of time for 30 min (for rate and extent measurements) or over 5 min (studies requiring initial velocities). […] Uptake was terminated by diluting 100 μL samples into 1 ml of iced 0.9% NaCl. […] The supernatant was aspirated. The cell pellet was washed once with 1 ml iced 0.9% NaCl and centrifuged as above. The washed pellet was solubilized in 1 ml of 0.3% Triton X-100 by incubation for 60 min at 37° C. The solubilized pellet was transferred to a scintillation vial, 10 ml of Liquiscint (National Diagnostics, Atlanta, Ga.) was added and radioactivity was quantitated in a Beckman Model LS6500 liquid scintillation counter. Separate samples at the longest incubation time used in a particular experiment were harvested for HPLC analysis of intracellular contents as above, except that after the second wash the pellets were extracted with 1 ml boiling 0.1 M Na-phosphate, pH 5.5. The extract was clarified by centrifugation and the supernatant was filtered through an MPS-1 filter unit (Amicon) prior to HPLC analysis.

[3] = target: T1, reduced folate carrier (RFC) (Homo sapiens, UniProt P41440); experiment: Kinetic constants for influx of [3H]MTX by CCRF-CEM cells; format: cell-based
T1 construct: endogenous in cells; host or cells: CCRF-CEM (parental)
T1 sequence (P41440 1-591): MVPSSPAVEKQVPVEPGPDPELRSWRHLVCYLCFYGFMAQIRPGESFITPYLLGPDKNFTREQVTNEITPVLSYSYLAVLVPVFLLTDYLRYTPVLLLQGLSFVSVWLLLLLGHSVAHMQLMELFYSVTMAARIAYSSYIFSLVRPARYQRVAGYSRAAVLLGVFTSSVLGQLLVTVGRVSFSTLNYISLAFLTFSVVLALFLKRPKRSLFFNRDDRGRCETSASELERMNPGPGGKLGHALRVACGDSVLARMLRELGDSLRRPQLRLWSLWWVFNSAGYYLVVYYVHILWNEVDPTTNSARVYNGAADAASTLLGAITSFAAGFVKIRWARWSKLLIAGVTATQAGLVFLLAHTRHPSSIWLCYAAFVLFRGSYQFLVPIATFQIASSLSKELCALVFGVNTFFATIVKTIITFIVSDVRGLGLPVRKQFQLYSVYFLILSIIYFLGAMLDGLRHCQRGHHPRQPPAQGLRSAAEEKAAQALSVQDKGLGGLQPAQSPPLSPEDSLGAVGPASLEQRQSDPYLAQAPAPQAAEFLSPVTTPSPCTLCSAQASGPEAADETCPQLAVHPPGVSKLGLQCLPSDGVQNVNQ
Experimental: as §1
Inhibition of the vi of uptake was measured after pre-incubation of CCRF-CEM cells either with TMTX alone (measuring inhibition at the RFC) or with TMTX+Z (measuring inhibition during Z potentiation). […] All studies were carried out in standard transport medium. Inhibitory potency was measured in two series of experiments and AMT was included in each series as an internal control. Values are average±range of two determinations. […] Values are average±range for duplicate determinations.

[4] = tested on: CCRF-CEM cells; experiment: [3H]MTX efflux from CCRF-CEM cells
[5] = tested on: araC 8C subline of CCRF-CEM; experiment: [3H]MTX uptake in es-deficient araC 8C subline; format: cell-based, human; settings: 30 min time course ±Z
Experimental: Z potentiation was evaluated: (1) in a subline of CCRF-CEM (araC 8C) deficient in the es (or ENT1) facilitated diffusion nucleoside transport system (this is the only nucleoside transporter present in CCRF-CEM cells); and (2) in the presence of specific inhibitors of the es nucleoside transporter. […] Note that potentiation by Z is large in these studies because they were performed in HBSS to avoid binding of inhibitors by serum proteins and Z potentiation is higher in HBSS than in RPMI1640. […] Concentration-dependence studies are proposed to quantitate the potency of each inhibitor (IC50).

[6] = tested on: dCK-deficient subline of CCRF-CEM; experiment: [3H]MTX uptake in deoxycytidine kinase-deficient subline; format: cell-based, human; settings: compared to parental CCRF-CEM
Experimental: Z metabolism by deoxycytidine kinase is not essential for Z potentiation. These experiments were conducted to determine if Z itself can cause potentiation orf needs to be metabolized to exert its effect. For these experiments, a deoxycytidine kinase (dCK)-deficient subline of CCRF-CEM was used. Although designated as dCK, this enzyme also phosphorylates the purines deoxyadenosine, deoxyguanosine, and fludarabine. Use of this subline allowed us to test the hypothesis that phosphorylation of Z to ZMP by dCK is essential for potentiation. […] Thus it appears that dCK is not absolutely required for Z potentiation, but may contribute to the metabolism.

[7] = tested on: K562 human chronic myelogenous leukemia cell line; experiment: [3H]MTX influx in K562 cells; format: cell-based; settings: 0.5 mM Z; data not shown
[8] = 4 hr exposure to 2 μM [3H]MTX, Z 500 μM where present
[9] = influx of [3H]MTX, pre-incubation with solvent (MTX alone), 1 μM TMTX, or 1 μM TMTX + 0.5 mM Z
[10] = 500 μM Z, 4 hr exposure to 2 μM [3H]MTX

- Kt [3, 9]: 3.0 ± 0.8 µM
- Vmax [3, 9]: 5.8 ± 0.9 pmol/min/10^7 cells
SMILES: CN(Cc1cnc2nc(N)nc(N)c2n1)c1ccc(C(=O)N[C@@H](CCC(=O)O)C(=O)O)cc1 [MTX, 4-amino-10-methylpteroylglutamic acid]
- 4-NH2-10-CH3-PteGlun, N ≧ 3 [1, 8]: 3.8 pmol/10^7 cells
- 4-NH2-10-CH3-PteGlun, n = 1 (MTX) [1, 8]: 26.2 pmol/10^7 cells
- 4-NH2-10-CH3-PteGlun, n = 2 [1, 8]: 23.8 pmol/10^7 cells
- 4-NH2-10-CH3-PteGlun, n = 3 [1, 8]: 2.3 pmol/10^7 cells
- 4-NH2-10-CH3-PteGlun, n = 4 [1, 8]: 1.4 pmol/10^7 cells
- 4-NH2-10-CH3-PteGlun, n = 5 [1, 8]: 0.1 pmol/10^7 cells
- 4-NH2-10-CH3-PteGlun, n ≧ 2 [1, 8]: 27.6 pmol/10^7 cells
- Total drug [1, 8]: 53.8 pmol/10^7 cells
- Intracellular radiolabel that is MTX at 30 min (HPLC) ([2]; absence of Z): 86%
- Intracellular radiolabel that is MTX-γ-Glu at 30 min (HPLC) ([2]; absence of Z): 12%
- Q10 for extent of [3H]MTX uptake at 30 min ([2]; absence of Z): 3.45±0.15
- Q10 for vi of [3H]MTX uptake (37° vs. 27°) ([2]; absence of Z): 4.6±0.3
- Vmax/Kt from vi (0-5 min) data ([2]; absence of Z): 0.44
- Q10 for extent of [3H]MTX uptake at 30 min ([2]; presence of 0.5 mM Z): 3.65±0.15
- Q10 for vi of [3H]MTX uptake (37° vs. 27°) ([2]; presence of 0.5 mM Z): 5.9±0.1
- [MTX]i/[MTX]e at 30 min ([2]; presence of 0.5 mM Z, all MTX concentrations 1-10 μM, assuming 0.55 pL/cell): ≥ 1.9
- Vmax/Kt from vi (0-5 min) data ([2]; presence of 0.5 mM Z): 0.47
- Intracellular radiolabel that is MTX at 30 min (HPLC) ([2]; presence of Z): 83%
- Intracellular radiolabel that is MTX-γ-(Glu)2 at 30 min (HPLC) ([2]; presence of Z): < 1%
- Intracellular radiolabel that is MTX-γ-Glu at 30 min (HPLC) ([2]; presence of Z): 7.5%
- Efflux t1/2 ([4]; loading and efflux each ±0.5 mM Z (cross-over), 2 μM [3H]MTX): 14.6 to 18.7 min

- Increase of Vmax of MTX influx ([3]; Z addition in presence of TMTX): ≈ 3 fold
SMILES: NC(=O)c1ncn([C@@H]2O[C@H](CO)[C@@H](O)[C@H]2O)c1N [Z, 5-amino-4-imidazolecarboxamide riboside]
- Potentiation of [3H]MTX uptake in araC 8C subline [5]: no potentiation
- Increase of MTX polyglutamates (n≧2) accumulation [1, 10]: 3.5 fold
- Increase of longer MTX polyglutamates (n≧3) [1, 10]: 6 fold
- Increase of total drug accumulation [1, 10]: 3 fold
- MTXGn accumulation at 1 and 10 μM [3H]MTX ([1]; 500 μM Z, data not shown): Increased MTXGn accumulation
- Drug retained after 2 hr efflux following 4 hr uptake ([1]; cells initially treated with Z, data not shown): much higher levels of drug
- Potentiation of 30 min accumulation (highest) ([2]; 0.5 mM Z, 10 μM [3H]MTX): 6 fold
- Potentiation of accumulation at 30 min ([2]; 0.5 mM Z, HBSS): ≈ 4 fold
- Potentiation of accumulation at 30 min ([2]; 0.5 mM Z, MHS): ≈ 2 fold
- Potentiation of accumulation at 30 min ([2]; 0.5 mM Z, standard medium): ≈ 2 fold
- Effect on initial influx velocity (vi; 0-5 min) ([2]; Z added 5 min before 2 μM [3H]MTX): does not affect vi
- Delay before potentiation of [3H]MTX uptake ([2]; Z added 10 min after [3H]MTX, data not shown): ≥ 5 min
- Increase of MTX accumulation at 30 min ([2]; Z at 0.5-1.0 mM, 2 μM [3H]MTX): ≥ 3 fold
- Onset of potentiation of [3H]MTX uptake ([2]; Z present with TMTX in 10 min preincubation): no delay in potentiation
- Delay before the onset of Z potentiation ([2]; all levels of MTX (1-10 μM), 0.5 mM Z): ≈ 10 min
- Potentiation of [3H]MTX uptake in dCK-deficient subline [6]: showed potentiation by Z, although to a slightly lower level
- Potentiation of [3H]MTX influx [7]: potentiates
- Effect on MTX efflux rates ([4]; 0.5 mM Z during uptake and/or efflux): No significant difference
